Measured values: patent publication US6495524B1, “Benzo[b]pyran derivatives useful as external agents for the skin” (Pola Chemical Industries Inc., priority 1998, dated 2002)

Assays:
[1] = system: mouse melanoma-derived cells B-16; assay: Inhibitory activity against melanine synthesis; type: cell-based; settings: for Inhibition Ratio (melanine synthesis) / Amount of Melanine: 4 days; for Amount of Melanine: mean ± SD of five flasks; for inhibitory activity against the melanine synthesis by melanocytes (in words): remarkable in concentrations of 0.0005 w/v% or more
Experimental: 3×10^4 cells of mouse melanoma-derived cells B-16 were inoculated in a plastic incubation flask (75 cm^3) and incubated in Eagle MEM medium containing 10% fetal bovine serum under the conditions of 5% CO2 and 37° C. Two days after the start of the incubation, the inulavosin obtained in Production Example 1 above, the acetylinulavosin obtained in Example 1, or the glucosylinulavosin obtained in Example 2 was added to the incubation flask so that its concentration in the medium became 5×10^−5 to 1×10^−3 (W/V%) as shown in Tables 1 to 3 below, and the incubation was continued for additional 4 days. After completion of the incubation, the medium was removed from the incubation flask and the flask was washed with equilibrium phosphate buffer solution (hereinafter referred as “PBS”). Thereafter, the cells adhered on the incubation flask were stripped off with a solution containing trypsin and EDTA and then the obtained mixture was centrifuged to collect the cells.
After washing the collected cells with PBS, 1N sodium hydroxide was added to the precipitate, and the mixture was heat-dissolved. After cooling, chloroform was added thereto and the mixture was stirred and centrifuged again. The resultant supernatant was measured for absorbance at 400 nm and the amount of melanine was obtained by a calibration curve prepared in advance using synthetic melanine. The amount of melanine was obtained as weight (μg) per 10^6 cells. In the experiments, five flasks were used for each concentration of the test samples.
Tables 1 to 3 show the results obtained as average values of five flasks together with standard deviations. Tables 1 to 3 show the results for inulavosin, acetylinulavosin, and glucosylinulavosin, respectively.
In addition, as a control, the amount of melanine was determined by conducting the same experiments as described above except that the compound represented by formula (I) was not added. From the amount of melanine in the absence of samples and the amount of melanine in the presence of a sample, there was obtained melanine synthesis inhibition ratio (R(%)) by the following equation. The amount of melanine in the equation was an average value obtained from five flasks.
R: Melanine synthesis inhibition ratio
A: Amount of melanine in the absence of samples
B: Amount of melanine in the presence of a sample

Staphylococcus aureus = settings: Heterocycles, Vol. 41, No. 9, 1923-1926 (1995); cited from earlier work
Pseudomonas aeruginosa = settings: Heterocycles, Vol. 41, No. 9, 1923-1926 (1995); cited from earlier work
fish = settings: Heterocycles, Vol. 41, No. 9, 1923-1926 (1995); cited from earlier work

| Structure (SMILES) | Inhibition Ratio (melanine synthesis) ([1]; 1 × 10^−3 W/V % in medium) | Amount of Melanine ([1]; 1 × 10^−3 W/V % in medium) | Inhibition Ratio (melanine synthesis) ([1]; 1 × 10^−4 W/V % in medium) | Amount of Melanine ([1]; 1 × 10^−4 W/V % in medium) | Inhibition Ratio (melanine synthesis) ([1]; 5 × 10^−4 W/V % in medium) | Amount of Melanine ([1]; 5 × 10^−4 W/V % in medium) | Inhibition Ratio (melanine synthesis) ([1]; 5 × 10^−5 W/V % in medium) | Amount of Melanine ([1]; 5 × 10^−5 W/V % in medium) | inhibitory activity against the melanine synthesis by melanocytes (in words) [1] | antibacterial activity (Staphylococcus aureus) | antibacterial activity (Pseudomonas aeruginosa) | fish toxin activity (fish) |
| --- | --- | --- | --- | --- | --- | --- | --- | --- | --- | --- | --- | --- |
| CC(=O)Oc1cc(C)ccc1C1(C)CC(C)(C)c2ccc(C)cc2O1 (stereo not drawn) [Acetylinulavosin, 2′-acetoxy-2,4,4,7,4′-pentamethylflavan] | 87.9% | 0.39 ± 0.18 μg/10^6 cells | 25.1% | 2.42 ± 0.26 μg/10^6 cells | 62.2% | 1.22 ± 0.17 μg/10^6 cells | 9.3% | 2.93 ± 0.35 μg/10^6 cells | have inhibitory activity against the melanine synthesis by melanocytes | – | – | – |
| Cc1ccc2c(c1)OC(C)(c1ccc(C)cc1OC1O[C@H](CO)[C@@H](O)[C@H](O)[C@H]1O)CC2(C)C (stereo partly drawn) [Glucosylinulavosin, 2′-O-glucosyl-2,4,4,7,4′-pentamethylflavan] | 80.8% | 0.62 ± 0.15 μg/10^6 cells | 22.0% | 2.52 ± 0.23 μg/10^6 cells | 58.2% | 1.35 ± 0.17 μg/10^6 cells | 6.5% | 3.02 ± 0.33 μg/10^6 cells | have inhibitory activity against the melanine synthesis by melanocytes | – | – | – |
| Cc1ccc(C2(C)CC(C)(C)c3ccc(C)cc3O2)c(O)c1 (stereo not drawn) [Inulavosin, 2′-hydroxy-2,4,4,7,4′-pentamethylflavan] | 91.3% | 0.28 ± 0.17 μg/10^6 cells | 31.0% | 2.23 ± 0.24 μg/10^6 cells | 73.1% | 0.87 ± 0.21 μg/10^6 cells | 15.2% | 2.74 ± 0.32 μg/10^6 cells | have inhibitory activity against the melanine synthesis by melanocytes | antibacterial activity | antibacterial activity | fish toxin activity |
